In brackets after ≈: the same amount, converted by molar mass.
System: M. catarrhalis A894
Assay: Minimal inhibitory concentration (MIC), microdilution method in cation-adjusted Mueller-Hinton Broth (CLSI M7-A7)
Assay type: cell-based
Settings: strain A894; for MIC: Moraxella catarrhalis
Procedure: Minimal inhibitory concentrations (MICs; mg/1) were determined in cation-adjusted Mueller-Hinton Broth by a microdilution method following the description given in “Methods for Dilution Antimicrobial Susceptibility Tests for Bacteria that Grow Aerobically”, Approved standard, 7th ed., Clinical and Laboratory Standards Institute (CLSI) Document M7-A7, Wayne, Pa., USA, 2006.

## (1R,2R)-2-methoxymethyl-1-{3-[(R)-2-oxo-3-(3-oxo-3,4-dihydro-2H-benzo[1,4]thiazin-6-yl)-oxazolidin-5-yl]-propylamino}-1,2-dihydro-pyrrolo[3,2,1-ij]quinolin-4-one and (1S,2S)-2-methoxymethyl-1-{3-[(R)-2-oxo-3-(3-oxo-3,4-dihydro-2H-benzo[1,4]thiazin-6-yl)-oxazolidin-5-yl]-propylamino}-1,2-dihydro-pyrrolo[3,2,1-ij]quinolin-4-one [Example 165]
  MIC for M. catarrhalis A894: 0.125 µg/mL

## O=C1O[C@H](CNCCC2CN3C(=O)CCc4ccc(F)c2c43)CN1c1ccc2c(c1)OCCO2 (mixture of isomers) [Example 26, (1RS)-1-(2-{[(R)-3-(2,3-dihydro-benzo[1,4]dioxin-6-yl)-2-oxo-oxazolidin-5-ylmethyl]-amino}-ethyl)-9-fluoro-1,2,5,6-tetrahydro-pyrrolo[3,2,1-ij]quinolin-4-one]
  MIC: 0.25 µg/mL

## O=C1CSc2ccc(N3C[C@@H](CCCN[C@H]4CN5C(=O)CNc6ccc(F)c4c65)OC3=O)nc2N1 [Example 171, (R)-7-fluoro-6-{3-[(R)-2-oxo-3-(3-oxo-3,4-dihydro-2H-pyrido[3,2-b][1,4]thiazin-6-yl)-oxazolidin-5-yl]-propylamino}-1,2,5,6-tetrahydro-pyrrolo[1,2,3-de]quinoxalin-3-one]
  MIC: ≤ 0.031 µg/mL

## O=C1COc2ccc(N3C[C@H](CCCN[C@H]4Cn5c(=O)cnc6ccc(F)c4c65)OC3=O)nc2N1 [Example 131, (R)-7-fluoro-6-{3-[(S)-2-oxo-3-(3-oxo-3,4-dihydro-2H-pyrido[3,2-b][1,4]oxazin-6-yl)-oxazolidin-5-yl]-propylamino}-5,6-dihydro-pyrrolo[1,2,3-de]quinoxalin-3-one]
  MIC: ≤ 0.031 µg/mL

## (1R,2S)-2-methyl-1-{3-[(R)-2-oxo-3-(3-oxo-3,4-dihydro-2H-pyrido[3,2-b][1,4]thiazin-6-yl)-oxazolidin-5-yl]-propylamino}-1,2-dihydro-pyrrolo[3,2,1-ij]quinolin-4-one and (1S,2R)-2-methyl-1-{3-[(R)-2-oxo-3-(3-oxo-3,4-dihydro-2H-pyrido[3,2-b][1,4]thiazin-6-yl)-oxazolidin-5-yl]-propylamino}-1,2-dihydro-pyrrolo[3,2,1-ij]quinolin-4-one [Example 168]
  MIC for M. catarrhalis A894: ≦0.031 mg/l

## O=C1COc2ccc(N3C[C@H](CCCN[C@H]4Cn5c(=O)ccc6cccc4c65)OC3=O)cc2N1 [Example 134, (R)-1-{3-[(S)-2-oxo-3-(3-oxo-3,4-dihydro-2H-benzo[1,4]oxazin-6-yl)-oxazolidin-5-yl]-propylamino}-1,2-dihydro-pyrrolo[3,2,1-ij]quinolin-4-one]
  MIC: ≤ 0.031 µg/mL

## CN1CC(=O)N2CC(NCCC[C@@H]3CN(c4ccc5c(n4)NC(=O)CS5)C(=O)O3)c3c(F)ccc1c32.Cl.Cl (mixture of isomers) [Example 201, (RS)-7-fluoro-6-{3-[(R)-2-oxo-3-(3-oxo-3,4-dihydro-2H-pyrido[3,2-b][1,4]thiazin-6-yl)-oxazolidin-5-yl]-propylamino}-1-methyl-1,2,5,6-tetrahydro-pyrrolo[1,2,3-de]quinoxalin-3-one dihydrochloride]
  MIC: ≤ 0.031 µg/mL

## O=C1CSc2ccc(N3C[C@H]([C@H](O)CC(=O)N[C@@H]4Cn5c(=O)ccc6ccc(F)c4c65)OC3=O)cc2N1 (mixture of isomers) [Example 108, (RS)—N—((S)-9-fluoro-4-oxo-1,2-dihydro-4H-pyrrolo[3,2,1-ij]quinolin-1-yl)-3-hydroxy-3-[(RS)-2-oxo-3-(3-oxo-3,4-dihydro-2H-benzo[1,4]thiazin-6-yl)-oxazolidin-5-yl]-propionamide]
  MIC: ≤ 0.031 µg/mL

## O=C1CSc2ccc(N3C[C@@H](CCN[C@@H]4Cn5c(=O)ccc6cccc4c65)OC3=O)cc2N1 [Example 87, (S)-1-{2-[(R)-2-oxo-3-(3-oxo-3,4-dihydro-2H-benzo[1,4]thiazin-6-yl)-oxazolidin-5-yl]-ethylamino}-1,2-dihydro-pyrrolo[3,2,1-ij]quinolin-4-one]
  MIC: ≤ 0.031 µg/mL

## O=C1COc2ccc(N3C[C@@H](CCCNCC4Cn5c(=O)ccc6ccc(F)c4c65)OC3=O)cc2N1 (mixture of isomers) [Example 52, (RS)-9-fluoro-1-({3-[(R)-2-oxo-3-(3-oxo-3,4-dihydro-2H-benzo[1,4]oxazin-6-yl)-oxazolidin-5-yl]-propylamino}-methyl)-1,2-dihydro-pyrrolo[3,2,1-ij]quinolin-4-one]
  MIC: ≤ 0.031 µg/mL

## O=C1COc2ccc(N3C[C@@H](CCCN[C@H]4Cn5c(=O)cnc6ccc(F)c4c65)OC3=O)cc2N1 [Example 104, (R)-7-fluoro-6-{3-[(R)-2-oxo-3-(3-oxo-3,4-dihydro-2H-benzo[1,4]oxazin-6-yl)-oxazolidin-5-yl]-propylamino}-5,6-dihydro-pyrrolo[1,2,3-de]quinoxalin-3-one]
  MIC: ≤ 0.031 µg/mL

## CN(C)Cc1ccc2c3c1ccc(=O)n3C[C@@H]2NCCC[C@H]1CN(c2ccc3c(c2)NC(=O)CS3)C(=O)O1 [Example 122, (R)-7-dimethylaminomethyl-1-{3-[(S)-2-oxo-3-(3-oxo-3,4-dihydro-2H-benzo[1,4]thiazin-6-yl)-oxazolidin-5-yl]-propylamino}-1,2-dihydro-pyrrolo[3,2,1-ij]quinolin-4-one]
  MIC: 0.5 µg/mL (≈ 0.937 µM)

## O=C1CSc2ccc(N3C[C@H](CCNC[C@@H]4Cn5c(=O)ccc6ccc(F)c4c65)OC3=O)cc2N1 [Example 50, (R)-9-fluoro-1-({2-[(S)-2-oxo-3-(3-oxo-3,4-dihydro-2H-benzo[1,4]thiazin-6-yl)-oxazolidin-5-yl]-ethylamino}-methyl)-1,2-dihydro-pyrrolo[3,2,1-ij]quinolin-4-one]
  MIC: ≤ 0.031 µg/mL

## C[C@H]1[C@H](NCCC[C@@H]2CN(c3ccc4c(n3)NC(=O)CS4)C(=O)O2)c2c(F)ccc3ccc(=O)n1c23 (relative stereo) [Example 185, (1R*,2S*)-9-fluoro-2-methyl-1-{3-[(R)-2-oxo-3-(3-oxo-3,4-dihydro-2H-pyrido[3,2-b][1,4]thiazin-6-yl)-oxazolidin-5-yl]-propylamino}-1,2-dihydro-pyrrolo[3,2,1-ij]quinolin-4-one]
  MIC: ≤ 0.031 µg/mL

## O=C1CSc2ccc(N3C[C@@H](CCNCC4Cn5c(=O)ccc6cccc4c65)OC3=O)cc2N1 (mixture of isomers) [Example 53, (RS)-1-({2-[(R)-2-oxo-3-(3-oxo-3,4-dihydro-2H-benzo[1,4]thiazin-6-yl)-oxazolidin-5-yl]-ethylamino}-methyl)-1,2-dihydro-pyrrolo[3,2,1-U]quinolin-4-one]
  MIC for M. catarrhalis A894: ≦0.031 mg/l

## (1R,2R)-2-hydroxymethyl-1-{3-[(S)-2-oxo-3-(3-oxo-3,4-dihydro-2H-benzo[1,4]thiazin-6-yl)-oxazolidin-5-yl]-propylamino}-1,2-dihydro-pyrrolo[3,2,1-ij]quinolin-4-one and (1S,2S)-2-hydroxymethyl-1-{3-[(S)-2-oxo-3-(3-oxo-3,4-dihydro-2H-benzo[1,4]thiazin-6-yl)-oxazolidin-5-yl]-propylamino}-1,2-dihydro-pyrrolo[3,2,1-ij]quinolin-4-one [Example 164]
  MIC for M. catarrhalis A894: 0.031 µg/mL

## C[C@H]1[C@H](NCCC[C@H]2CN(c3ccc4c(c3)NC(=O)CS4)C(=O)O2)c2c(F)ccc3ccc(=O)n1c23 (relative stereo) [Example 184, (1R*,2S*)-9-fluoro-2-methyl-1-{3-[(S)-2-oxo-3-(3-oxo-3,4-dihydro-2H-benzo[1,4]thiazin-6-yl)-oxazolidin-5-yl]-propylamino}-1,2-dihydro-pyrrolo[3,2,1-ij]quinolin-4-one]
  MIC: ≤ 0.031 µg/mL

## O=C1CSc2ccc(N3C[C@@H](CCCN[C@H]4Cn5c(=O)ccc6nccc4c65)OC3=O)cc2N1 [Example 18, (4R)-4-{3-[(R)-2-oxo-3-(3-oxo-3,4-dihydro-2H-benzo[1,4]thiazin-6-yl)-oxazolidin-5-yl]-propylamino}-4,5-dihydro-pyrrolo[3,2,1-de][1,5]naphthyridin-7-one]
  MIC: ≤ 0.031 µg/mL

## O=C1CSc2ccc(N3C[C@H](CCNCC4Cn5c(=O)ccc6cccc4c65)OC3=O)nc2N1 (mixture of isomers) [Example 176, (RS)-1-({2-[(S)-2-oxo-3-(3-oxo-3,4-dihydro-2H-pyrido[3,2-b][1,4]thiazin-6-yl)-oxazolidin-5-yl]-ethylamino}-methyl)-1,2-dihydro-pyrrolo[3,2,1-ij]quinolin-4-one]
  MIC: ≤ 0.031 µg/mL

## O=C1COc2ccc(N3C[C@@H](CCCNC4Cn5c(=O)cnc6cccc4c65)OC3=O)cc2N1 (mixture of isomers) [Example 21, (6RS)-6-{3-[(R)-2-oxo-3-(3-oxo-3,4-dihydro-2H-benzo[1,4]oxazin-6-yl)-oxazolidin-5-yl]-propylamino}-5,6-dihydro-pyrrolo[1,2,3-de]quinoxalin-3-one]
  MIC: ≤ 0.031 µg/mL

## O=C1COc2ccc(N3C[C@@H](CCCN[C@@H]4Cn5c(=O)ccc6ccc(F)c4c65)OC3=O)nc2N1 [Example 190, (S)-9-fluoro-1-{3-[(R)-2-oxo-3-(3-oxo-3,4-dihydro-2H-pyrido[3,2-b][1,4]oxazin-6-yl)-oxazolidin-5-yl]-propylamino}-1,2-dihydro-pyrrolo[3,2,1-ij]quinolin-4-one]
  MIC: ≤ 0.031 µg/mL

## O=C1CSc2ccc(N3C[C@H](CCCN[C@@H]4Cn5c(=O)ccc6ccc(F)c4c65)OC3=O)cc2N1 [Example 130, (S)-9-fluoro-1-{3-[(S)-2-oxo-3-(3-oxo-3,4-dihydro-2H-benzo[1,4]thiazin-6-yl)-oxazolidin-5-yl]-propylamino}-1,2-dihydro-pyrrolo[3,2,1-ij]quinolin-4-one]
  MIC: ≤ 0.031 µg/mL

## Cc1ccc(N2C[C@@H](CNCCC3CN4C(=O)CCc5ccc(F)c3c54)OC2=O)cc1F (mixture of isomers) [Example 27, (1RS)-9-fluoro-1-(2-{[(R)-3-(3-fluoro-4-methyl-phenyl)-2-oxo-oxazolidin-5-ylmethyl]-amino}-ethyl)-1,2,5,6-tetrahydro-pyrrolo[3,2,1-ij]quinolin-4-one]
  MIC: 0.5 µg/mL
